Test results from ChEMBL document CHEMBL1131625, “Neurosteroid analogues. 6. The synthesis and GABAA receptor pharmacology of enantiomers of dehydroepiandrosterone sulfate, pregnenolone sulfate, and (3alpha,5beta)-3-hydroxypregnan-20-one sulfate” (J Med Chem, 1998).

Assays:
[1] = target: GABA-A receptor; anion channel; experiment: Inhibitory activity against Gamma-aminobutyric acid A (GABA-A) receptor of rat hippocampal neurons; type: tissue-based, Hippocampus
Rattus norvegicus [2] = species on record: Rattus norvegicus; experiment: The Non-competitive block of GABA-mediated currents in cultured neurons from rat ventral mesencephalon; type: functional
Rattus norvegicus [3] = species on record: Rattus norvegicus; experiment: Inhibition of GABA-mediated currents by compound; type: functional

Row | SMILES | IC50 [1] [µM] | Ki (Rattus norvegicus [2]) [µM] | Ki (Rattus norvegicus [3]) [µM]
1 | CC(=O)[C@@H]1CC[C@@H]2[C@H]3CC=C4C[C@H](OS(=O)(=O)O)CC[C@@]4(C)[C@@H]3CC[C@]21C | 76 |  | 
2 | C[C@]12CC[C@H](OS(=O)(=O)O)CC1=CC[C@@H]1[C@@H]2CC[C@]2(C)C(=O)CC[C@@H]12 | 11 | 13 | 
3 | CC(=O)[C@@H]1CC[C@H]2[C@@H]3CC[C@H]4C[C@@H](OS(=O)(=O)O)CC[C@@]4(C)[C@H]3CC[C@@]12C |  |  | 47
4 | CC(=O)[C@H]1CC[C@H]2[C@@H]3CC=C4C[C@@H](OS(=O)(=O)O)CC[C@]4(C)[C@H]3CC[C@]12C | 82 |  | 
5 | C[C@@]12CC[C@@H]3[C@H](CC=C4C[C@H](OS(=O)(=O)O)CC[C@]43C)[C@H]1CCC2=O | 80 | 81 | 
6 | CC(=O)[C@H]1CC[C@H]2[C@@H]3CC[C@@H]4C[C@H](OS(=O)(=O)O)CC[C@]4(C)[C@H]3CC[C@]12C | 39 |  | 39
